Experimental data reported in US9328106B2, “Cyclic ether pyrazol-4-yl-heterocyclyl-carboxamide compounds and methods of use” (Genentech, Inc., priority 2012, dated 2016).

Target: PIM1 (Homo sapiens (Human), UniProt P11309)
Assay: biochemical
Format: biochemical
Details: not given

Sequence of PIM1 (P11309 whole entry): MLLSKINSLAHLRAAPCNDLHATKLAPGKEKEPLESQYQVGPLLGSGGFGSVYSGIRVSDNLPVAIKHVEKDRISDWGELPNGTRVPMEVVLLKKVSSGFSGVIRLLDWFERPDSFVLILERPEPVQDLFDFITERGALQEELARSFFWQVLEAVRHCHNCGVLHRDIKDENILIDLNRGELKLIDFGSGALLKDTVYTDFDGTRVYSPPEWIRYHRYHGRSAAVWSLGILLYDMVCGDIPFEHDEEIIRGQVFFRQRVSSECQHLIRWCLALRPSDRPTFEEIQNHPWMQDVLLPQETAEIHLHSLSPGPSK

Ki [nM] | SMILES
0.017 | [2H]C([2H])([2H])O[C@H]1CO[C@@H](c2c(NC(=O)c3nc(-c4c(F)cccc4F)sc3N)cnn2C)CC[C@@H]1N [Example 180, 5-Amino-N-[5-[(2R,5S,6R)-5-amino-6-(trideuteriomethoxy)oxepan-2-yl]-1-methyl-pyrazol-4-yl]-2-(2,6-difluorophenyl)thiazole-4-carboxamide]

Same assay, conditions: 20 pM PIM1, 1 μM FAM-peptide, 10 μM ATP, 90 minutes at room temperature; read-out: PIM1 LC3K (KI)

SMILES | Ki [nM]
Cn1ncc(NC(=O)c2nc(-c3cccc(F)c3F)sc2N)c1[C@@H]1CC[C@@H](N)[C@@H](F)CO1 [Example 181, 5-Amino-N-[5-[(2S,5R,6R)-5-amino-6-fluoro-oxepan-2-yl]-1-methyl-pyrazol-4-yl]-2-(2,3-difluorophenyl)thiazole-4-carboxamide] | 0.004
Cn1ncc(NC(=O)c2nc(-c3ccncc3F)sc2N)c1[C@@H]1CC[C@@H](N)[C@@H](F)CO1 [Example 182, 5-Amino-N-[5-[(2S,5R,6R)-5-amino-6-fluoro-oxepan-2-yl]-1-methyl-pyrazol-4-yl]-2-(3-fluoro-4-pyridyl)thiazole-4-carboxamide] | 0.051
CO[C@H]1CO[C@H](c2c(NC(=O)c3nc(-c4ccccc4F)sc3N)cnn2C)CC[C@H]1N [Example 183, 5-Amino-N-[5-[(2S,5R,6R)-5-amino-6-methoxy-oxepan-2-yl]-1-methyl-pyrazol-4-yl]-2-(2-fluorophenyl)thiazole-4-carboxamide] | 0.0143
C[C@H]1O[C@@H](c2c(NC(=O)c3nc(-c4c(F)cccc4F)sc3N)cnn2C)CC(F)(F)[C@@]1(C)N [Example 184, 5-Amino-N-(5-((2R,5S,6R)-5-amino-4,4-difluoro-5,6-dimethyltetrahydro-2H-pyran-2-yl)-1-methyl-1H-pyrazol-4-yl)-2-(2,6-difluorophenyl)thiazole-4-carboxamide] | 0.484
COCCOc1cc(F)c(-c2nc(C(=O)Nc3cnn(C)c3[C@@H]3CC[C@@H](N)[C@@H](F)CO3)ccc2F)c(F)c1 [Example 189, N-(5-((2S,5R,6R)-5-Amino-6-fluorooxepan-2-yl)-1-methyl-1H-pyrazol-4-yl)-6-(2,6-difluoro-4-(2-methoxyethoxy)phenyl)-5-fluoropicolinamide] | 0.025
COCCOc1cc(F)c(-c2nc(C(=O)Nc3cnn(C)c3[C@@H]3CC[C@@H](N)[C@H](O)CO3)ccc2F)c(F)c1 [Example 191, N-(5-((2S,5R,6S)-5-Amino-6-hydroxyoxepan-2-yl)-1-methyl-1H-pyrazol-4-yl)-6-(2,6-difluoro-4-(2-methoxyethoxy)phenyl)-5-fluoropicolinamide] | 0.056
COCCOc1cc(F)c(-c2nc(C(=O)Nc3cnn(C)c3[C@@H]3CC[C@@H](N)[C@H](F)CO3)ccc2F)c(F)c1 [Example 192, N-(5-((2S,5R,6S)-5-amino-6-fluorooxepan-2-yl)-1-methyl-1H-pyrazol-4-yl)-6-(2,6-difluoro-4-(2-methoxyethoxy)phenyl)-5-fluoropicolinamide] | 0.023
Cn1ncc(NC(=O)c2ccc(F)c(-c3c(F)cc(C4(O)COC4)cc3F)n2)c1[C@@H]1CC[C@@H](N)[C@H](F)CO1 [Example 193, N-(5-((2S,5R,6S)-5-amino-6-fluorooxepan-2-yl)-1-methyl-1H-pyrazol-4-yl)-6-(2,6-difluoro-4-(3-hydroxyoxetan-3-yl)phenyl)-5-fluoropicolinamide] | 0.034
Cn1ncc(NC(=O)c2ccc(F)c(-c3c(F)cc(C4(O)CCC4)cc3F)n2)c1[C@@H]1CC[C@@H](N)[C@H](F)CO1 [Example 198, N-(5-((2S,5R,6S)-5-amino-6-fluorooxepan-2-yl)-1-methyl-1H-pyrazol-4-yl)-6-(2,6-difluoro-4-(1-hydroxycyclobutyl)phenyl)-5-fluoropicolinamide] | 0.021
Cn1ncc(NC(=O)c2ccc(F)c(-c3c(F)cc(C(C)(C)O)cc3F)n2)c1[C@@H]1CC[C@@H](N)[C@H](F)CO1 [Example 200, N-(5-((2S,5R,6S)-5-amino-6-fluorooxepan-2-yl)-1-methyl-1H-pyrazol-4-yl)-6-(2,6-difluoro-4-(2-hydroxypropan-2-yl)phenyl)-5-fluoropicolinamide] | 0.011
COc1cc(F)c(-c2nc(C(=O)Nc3cnn(C)c3[C@@H]3CC[C@@H](N)[C@H](F)CO3)ccc2F)c(F)c1 [Example 201, N-(5-((2S,5R,6S)-5-amino-6-fluorooxepan-2-yl)-1-methyl-1H-pyrazol-4-yl)-6-(2,6-difluoro-4-methoxyphenyl)-5-fluoropicolinamide] | 0.019
COC1(c2cc(F)c(-c3nc(C(=O)Nc4cnn(C)c4[C@@H]4CC[C@@H](N)[C@@H](F)CO4)ccc3F)c(F)c2)COC1 [Example 203, N-(5-((2S,5R,6R)-5-amino-6-fluorooxepan-2-yl)-1-methyl-1H-pyrazol-4-yl)-6-(2,6-difluoro-4-(3-methoxyoxetan-3-yl)phenyl)-5-fluoropicolinamide] | 0.119
Cn1ncc(NC(=O)c2ccc(F)c(-c3c(F)cc(C4(O)CC4)cc3F)n2)c1[C@@H]1CC[C@@H](N)[C@H](F)CO1 [Example 204, N-(5-((2S,5R,6S)-5-amino-6-fluorooxepan-2-yl)-1-methyl-1H-pyrazol-4-yl)-6-(2,6-difluoro-4-(1-hydroxycyclopropyl)phenyl)-5-fluoropicolinamide] | 0.001
CCC(=O)c1cc(F)c(-c2nc(C(=O)Nc3cnn(C)c3[C@@H]3CC[C@@H](N)[C@H](F)CO3)ccc2F)c(F)c1 [Example 205, N-(5-((2S,5R,6S)-5-amino-6-fluorooxepan-2-yl)-1-methyl-1H-pyrazol-4-yl)-6-(2,6-difluoro-4-propionylphenyl)-5-fluoropicolinamide] | 0.034
Cn1ncc(NC(=O)c2ccc(F)c(-c3c(F)cc(C4(F)CCOCC4)cc3F)n2)c1[C@@H]1CC[C@@H](N)[C@H](F)CO1 [Example 206, N-(5-((2S,5R,6S)-5-amino-6-fluorooxepan-2-yl)-1-methyl-1H-pyrazol-4-yl)-6-(2,6-difluoro-4-(4-fluorotetrahydro-2H-pyran-4-yl)phenyl)-5-fluoropicolinamide] | 0.016

The next lines start with the values.

Ki [nM] | SMILES
4.35 | C[C@@H]1O[C@H](c2c(NC(=O)c3nc(-c4c(F)cccc4F)sc3N)cnn2C)CC(F)(F)[C@]1(C)N [Example 185, 5-Amino-N-(5-((2S,5R,6S)-5-amino-4,4-difluoro-5,6-dimethyltetrahydro-2H-pyran-2-yl)-1-methyl-1H-pyrazol-4-yl)-2-(2,6-difluorophenyl)thiazole-4-carboxamide]
0.007 | Cn1ncc(NC(=O)c2nc(-c3ccccc3F)sc2N)c1[C@@H]1CC[C@@H](N)[C@@H](F)CO1 [Example 186, 5-Amino-N-(5-((2S,5R,6R)-5-amino-6-fluorooxepan-2-yl)-1-methyl-1H-pyrazol-4-yl)-2-(2-fluorophenyl)thiazole-4-carboxamide]
0.027 | COc1cc(F)c(-c2nc(C(=O)Nc3cnn(C)c3[C@@H]3CC[C@@H](N)[C@@H](F)CO3)ccc2F)c(F)c1 [Example 187, N-(5-((2S,5R,6R)-5-Amino-6-fluorooxepan-2-yl)-1-methyl-1H-pyrazol-4-yl)-6-(2,6-difluoro-4-methoxyphenyl)-5-fluoropicolinamide]
0.03 | Cn1ncc(NC(=O)c2ccc(F)c(-c3c(F)cc(OC4CCOCC4)cc3F)n2)c1[C@@H]1CC[C@@H](N)[C@@H](F)CO1 [Example 188, N-(5-((2S,5R,6R)-5-Amino-6-fluorooxepan-2-yl)-1-methyl-1H-pyrazol-4-yl)-6-(2,6-difluoro-4-((tetrahydro-2H-pyran-4-yl)oxy)phenyl)-5-fluoropicolinamide]
0.014 | Cn1ncc(NC(=O)c2ccc(F)c(-c3c(F)cc(OCCO)cc3F)n2)c1[C@@H]1CC[C@@H](N)[C@@H](F)CO1 [Example 190, N-(5-((2S,5R,6R)-5-Amino-6-fluorooxepan-2-yl)-1-methyl-1H-pyrazol-4-yl)-6-(2,6-difluoro-4-(2-hydroxyethoxy)phenyl)-5-fluoropicolinamide]
0.022 | Cn1ncc(NC(=O)c2ccc(F)c(-c3c(F)cc(C4(F)COC4)cc3F)n2)c1[C@@H]1CC[C@@H](N)[C@H](F)CO1 [Example 194, N-(5-((2S,5R,6S)-5-amino-6-fluorooxepan-2-yl)-1-methyl-1H-pyrazol-4-yl)-6-(2,6-difluoro-4-(3-fluorooxetan-3-yl)phenyl)-5-fluoropicolinamide]
0.025 | Cn1ncc(NC(=O)c2ccc(F)c(-c3c(F)cccc3F)n2)c1[C@@H]1CC[C@@H](N)[C@H](F)CO1 [Example 195, N-(5-((2S,5R,6S)-5-amino-6-fluorooxepan-2-yl)-1-methyl-1H-pyrazol-4-yl)-6-(2,6-difluorophenyl)-5-fluoropicolinamide]
0.006 | Cn1ncc(NC(=O)c2ccc(F)c(-c3c(F)cc(C4(O)CCOCC4)cc3F)n2)c1[C@@H]1CC[C@@H](N)[C@H](F)CO1 [Example 196, N-(5-((2S,5R,6S)-5-amino-6-fluorooxepan-2-yl)-1-methyl-1H-pyrazol-4-yl)-6-(2,6-difluoro-4-(4-hydroxytetrahydro-2H-pyran-4-yl)phenyl)-5-fluoropicolinamide]
0.018 | Cn1ncc(NC(=O)c2ccc(F)c(-c3c(F)cc(OC4CCOCC4)cc3F)n2)c1[C@@H]1CC[C@@H](N)[C@H](F)CO1 [Example 197, N-(5-((2S,5R,6S)-5-Amino-6-fluorooxepan-2-yl)-1-methyl-1H-pyrazol-4-yl)-6-(2,6-difluoro-4-((tetrahydro-2H-pyran-4-yl)oxy)phenyl)-5-fluoropicolinamide]
0.031 | COCc1cc(F)c(-c2nc(C(=O)Nc3cnn(C)c3[C@@H]3CC[C@@H](N)[C@H](F)CO3)ccc2F)c(F)c1 [Example 199, N-(5-((2S,5R,6S)-5-amino-6-fluorooxepan-2-yl)-1-methyl-1H-pyrazol-4-yl)-6-(2,6-difluoro-4-(methoxymethyl)phenyl)-5-fluoropicolinamide]
0.056 | COC1(c2cc(F)c(-c3nc(C(=O)Nc4cnn(C)c4[C@@H]4CC[C@@H](N)[C@H](F)CO4)ccc3F)c(F)c2)COC1 [Example 202, N-(5-((2S,5R,6S)-5-amino-6-fluorooxepan-2-yl)-1-methyl-1H-pyrazol-4-yl)-6-(2,6-difluoro-4-(3-methoxyoxetan-3-yl)phenyl)-5-fluoropicolinamide]
